Source: patent US4052455A, “Styrylamidines” (Mead Johnson & Company, priority 1975, dated 1977)
Counter-ions that a name gives are not always drawn.

Columns and labels:
[1] = system: blood platelet aggregation; experiment: Oral administration to rabbits; inhibition of blood platelet aggregation induced by ADP or collagen in platelet rich plasma (Example 56); type: in vivo; conditions: rabbit, oral single dose 25 mg./kg.; for % Inhibition of Blood Platelet Aggregation Induced by ADP: ADP 0.25-1.0 microgram; for % Inhibition of Blood Platelet Aggregation Induced by Collagen: lowest amount of collagen giving maximal aggregation
Procedure: (§1) Measurement of the antithrombogenic activity of the compounds of Formula I is carried out by standard pharmacological tests essentially described by Born, Nature, 194, 927 (1962) and O'Brien, J. Clin. Path., 15, 446 (1962). This test comprises a nephelometric method is which the change in turbidity of a specimen of platelet rich plasma (human or rabbit) is measured on causation of platelet aggregation by addition of a thrombogenic inducing agent such as adenosine diphosphate or collagen. The compounds of the present invention are effective antithrombogenic agents according to this test at concentrations in the order of about 0.5 to 90 mcg./0.5 ml. platelet rich plasma. In the intact animal, the antithrombogenic effect is readily observed by applying the above test to blood samples withdrawn prior to and after administration of a compound of the present invention.
The styrylamidine is orally administered to each rabbit in a group of 2-6 rabbits at a single dose of 25 mg./kg. body weight. A 8 ml. portion of blood is drawn just prior to dosing in order to obtain a control value and at various time periods thereafter. Platelet rich plasma is prepared from each blood sample by centrifugation at 200 times gravity for 10 min. at room temperature. Samples (0.5 ml.) of platelet rich plasma are tested for their ability to aggregate with either collagen or adenosine-5'-diphosphate added as specified in the modification of Born and O'Brien method which has been fully described hereinbefore. The results shown below indicate the inhibition of blood platelet aggregation induced by the lowest amount of collagen giving maximal aggregation or 0.25-1.0 microgram adenosine-5'-diphosphate for representative amidines.

platelet aggregation = experiment: Born/O'Brien nephelometric platelet aggregation test in platelet rich plasma (ADP or collagen induced); type: cell-based; conditions: human or rabbit platelet rich plasma, 50% or more reduction, read-out: Concentration at which collagen or adenosine diphosphate induced platelet aggregation is reduced by 50% or more
Procedure: as §1

| SMILES | IC50 (platelet aggregation) [µg/mL] | % Inhibition of Blood Platelet Aggregation Induced by ADP ([1]; 2 hrs.) [%] | % Inhibition of Blood Platelet Aggregation Induced by ADP ([1]; 4 hrs.) [%] | % Inhibition of Blood Platelet Aggregation Induced by ADP ([1]; 6 hrs.) [%] | % Inhibition of Blood Platelet Aggregation Induced by ADP ([1]; 24 hrs.) [%] | % Inhibition of Blood Platelet Aggregation Induced by Collagen ([1]; 2 hrs.) [%] | % Inhibition of Blood Platelet Aggregation Induced by Collagen ([1]; 4 hrs.) [%] | % Inhibition of Blood Platelet Aggregation Induced by Collagen ([1]; 6 hrs.) [%] | % Inhibition of Blood Platelet Aggregation Induced by Collagen ([1]; 24 hrs.) [%] | also measured |
| --- | --- | --- | --- | --- | --- | --- | --- | --- | --- | --- |
| N=C(N/C=C/c1ccc(Cl)c(Cl)c1)C1CC1 [N-(3,4-DICHLOROSTYRYL)CYCLOPROPANECARBOXAMIDINE HYDROCHLORIDE] | – | 55 | 90 | 75 | 5 | 85 | 97 | 87 | 15 | % Inhibition of Blood Platelet Aggregation Induced by ADP ([1]; 1 hr.): 60%; % Inhibition of Blood Platelet Aggregation Induced by Collagen ([1]; 1 hr.): 65% |
| N=C(N/C=C/c1ccc(Cl)c(Cl)c1)c1ccccc1 [N-(3,4-DICHLOROSTYRYL)BENZAMIDINE HYDROCHLORIDE] | – | 54 | 30 | 22 | 0 | 65 | 26 | 3 | 0 | % Inhibition of Blood Platelet Aggregation Induced by ADP ([1]; 0.5 hrs.): 61%; % Inhibition of Blood Platelet Aggregation Induced by Collagen ([1]; 0.5 hrs.): 73% |
| N=C(N/C=C/c1ccc(N)cc1)c1cccc(N)c1 [3-AMINO-N-(4-AMINOSTYRYL)BENZAMIDINE TRIHYDROCHLORIDE MONOHYDRATE] | < 30 | – | – | – | – | – | – | – | – | – |
| CCCC(=N)N/C=C/c1ccc(Cl)c(Cl)c1 [N-(3,4-DICHLOROSTYRYL)BUTYRAMIDINE HYDROCHLORIDE] | – | 67 | 37 | 30 | 0 | 92 | 32 | 45 | 0 | % Inhibition of Blood Platelet Aggregation Induced by ADP ([1]; 1 hr.): 18%; % Inhibition of Blood Platelet Aggregation Induced by Collagen ([1]; 1 hr.): 30% |
| N=C(N/C=C/c1ccc([N+](=O)[O-])cc1)c1cc(N)cc(N)c1 [3,5-DIAMINO-N-(4-NITROSTYRYL)-BENZAMIDINE TRIHYDROCHLORIDE] | < 30 | – | – | – | – | – | – | – | – | – |
| CC(C)(C)C(=N)N/C=C/c1ccc(Cl)c(Cl)c1 [N-(3,4-DICHLOROSTYRYL)-2,2-DIMETHYLPROPIONAMIDINE] | – | 25 | 67 | 87 | 0 | 80 | 95 | 95 | 0 | % Inhibition of Blood Platelet Aggregation Induced by ADP ([1]; 1 hr.): 60%; % Inhibition of Blood Platelet Aggregation Induced by Collagen ([1]; 1 hr.): 78% |

More lines, main results first:

| IC50 (platelet aggregation) [µg/mL] | SMILES | % Inhibition of Blood Platelet Aggregation Induced by ADP ([1]; 2 hrs.) [%] | % Inhibition of Blood Platelet Aggregation Induced by ADP ([1]; 4 hrs.) [%] | % Inhibition of Blood Platelet Aggregation Induced by ADP ([1]; 6 hrs.) [%] | % Inhibition of Blood Platelet Aggregation Induced by ADP ([1]; 24 hrs.) [%] | % Inhibition of Blood Platelet Aggregation Induced by Collagen ([1]; 2 hrs.) [%] | % Inhibition of Blood Platelet Aggregation Induced by Collagen ([1]; 4 hrs.) [%] | % Inhibition of Blood Platelet Aggregation Induced by Collagen ([1]; 6 hrs.) [%] | % Inhibition of Blood Platelet Aggregation Induced by Collagen ([1]; 24 hrs.) [%] | also measured |
| --- | --- | --- | --- | --- | --- | --- | --- | --- | --- | --- |
| < 30 | N=C(N/C=C/c1ccccc1N)c1ccccc1 [N-(2-AMINOSTYRYL)BENZAMIDINE DIHYDROCHLORIDE] | – | – | – | – | – | – | – | – | – |
| < 30 | N=C(N/C=C/c1ccc([N+](=O)[O-])cc1)c1ccc(N)cc1 [4-AMINO-N-(4-NITROSTYRYL)BENZAMIDINE HYDROCHLORIDE] | – | – | – | – | – | – | – | – | – |
| < 30 | CC(=N)N/C=C/c1ccc(C2CCCCC2)c(Br)c1 [N-(3-BROMO-4-CYCLOHEXYLSTYRYL)ACETAMIDINE HYDROCHLORIDE] | – | – | – | – | – | – | – | – | – |
| < 30 | N=C(N/C=C/c1ccc(N)cc1)c1ccccc1 [N-(4-AMINOSTYRYL)BENZAMIDINE DIHYDROCHLORIDE] | – | – | – | – | – | – | – | – | – |
| < 30 | N=C(N/C=C/c1ccc(N)cc1)c1ccc(N)cc1 [4-AMINO-N-(4-AMINOSTYRYL)BENZAMIDINE TRIHYDROCHLORIDE] | – | – | – | – | – | – | – | – | – |
| < 30 | CC(=O)Nc1ccc(/C=C/NC(=N)c2ccccc2)cc1 [N-(4-ACETAMIDOSTYRYL)BENZAMIDINE HYDROCHLORIDE] | – | – | – | – | – | – | – | – | – |
| < 30 | CN(C)c1ccc(C(=N)N/C=C/c2ccc([N+](=O)[O-])cc2)cc1 [4-(DIMETHYLAMINO)-N-(4-NITROSTYRYL)-BENZAMIDINE ISETHIONATE] | – | – | – | – | – | – | – | – | – |
